Laboratory results: publication PMC11640836, “Aminomethylmorpholino Nucleosides as Novel Inhibitors of PARP1 and PARP2: Experimental and Molecular Modeling Analyses of Their Selectivity and Mechanism of Action” (International Journal of Molecular Sciences, 2024)
Read-outs that look alike come from different tables or passages of the source.

How the values were obtained:
PARP1 = target: T1, PARP1 (Homo sapiens, UniProt P09874); assay: PARP1 autopoly(ADP-ribosyl)ation (autoPARylation) enzyme assay with [32P]NAD+; type: biochemical
T1 construct: made in house; host or cells: insect cells
T1 sequence (P09874 whole entry): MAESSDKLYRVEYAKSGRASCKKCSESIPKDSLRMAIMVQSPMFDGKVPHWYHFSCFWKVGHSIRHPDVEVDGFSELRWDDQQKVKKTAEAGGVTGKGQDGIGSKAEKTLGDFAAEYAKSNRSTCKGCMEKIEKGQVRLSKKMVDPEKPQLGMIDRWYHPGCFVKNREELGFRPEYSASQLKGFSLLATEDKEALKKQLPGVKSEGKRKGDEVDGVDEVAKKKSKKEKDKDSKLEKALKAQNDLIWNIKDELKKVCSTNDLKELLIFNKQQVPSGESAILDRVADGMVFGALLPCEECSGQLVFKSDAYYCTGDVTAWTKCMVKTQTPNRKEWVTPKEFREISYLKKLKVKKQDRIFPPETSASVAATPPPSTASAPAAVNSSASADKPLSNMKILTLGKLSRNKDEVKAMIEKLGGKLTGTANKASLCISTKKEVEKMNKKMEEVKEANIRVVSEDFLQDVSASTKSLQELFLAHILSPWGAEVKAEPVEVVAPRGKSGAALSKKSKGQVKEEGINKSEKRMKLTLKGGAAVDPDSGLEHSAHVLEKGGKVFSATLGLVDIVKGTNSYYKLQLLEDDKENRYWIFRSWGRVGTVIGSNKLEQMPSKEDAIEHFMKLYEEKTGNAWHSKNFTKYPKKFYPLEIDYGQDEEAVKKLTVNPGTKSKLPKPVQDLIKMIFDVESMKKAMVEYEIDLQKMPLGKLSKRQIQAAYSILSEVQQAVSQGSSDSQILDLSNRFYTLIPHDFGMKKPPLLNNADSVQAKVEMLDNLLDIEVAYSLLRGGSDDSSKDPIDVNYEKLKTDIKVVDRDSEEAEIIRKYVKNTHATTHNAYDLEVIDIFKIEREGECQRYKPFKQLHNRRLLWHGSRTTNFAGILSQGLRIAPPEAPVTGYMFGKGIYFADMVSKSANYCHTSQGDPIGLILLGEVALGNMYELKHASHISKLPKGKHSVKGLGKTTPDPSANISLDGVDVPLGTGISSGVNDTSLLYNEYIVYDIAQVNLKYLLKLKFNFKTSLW
Description: (§1) Human recombinant poly(ADP-ribose) polymerase 1 (PARP1) and murine poly(ADP-ribose) polymerase 2 (PARP2) were expressed in insect cells and purified as previously described. Radioactively labeled [^32P]NAD^+ was synthesized from [α-^32P]ATP, according to the previously developed method. The reaction of autopoly(ADP-ribosyl)ation was performed as follows. For PARP1, the reaction mixture contained 50 mM of Tris-HCl, a pH of 8.0, 10 mM of MgCl2, 150 mM of NaCl, 7 mM of β-mercaptoethanol, 2 A260/mL of activated DNA, 0.3 mM of [^32P]NAD^+, and 1 of the tested compounds. The reaction was initiated by adding PARP1 up to 200 nM, and the reaction mixtures were incubated at 37 °C for 2 min. For PARP2, the reaction mixture contained 50 mM of Tris-HCl, a pH of 8.0, 3 mM of spermine, 150 mM of NaCl, 7 mM of β-mercaptoethanol, 2 A260/mL of activated DNA, 0.6 mM of [^32P]NAD^+, and 1 of the tested compounds. The reaction was initiated by adding PARP2 up to 800 nM, and the reaction mixtures were incubated at 37 °C for 5 min. The tested compounds were added at six fixed concentrations, specified for each of them. The reaction was stopped by dropping 10 µL aliquots onto Whatman 1 filter papers soaked in 5% trichloroacetic acid (TCA). The filters were washed 4 times with 150 mL of 5% TCA and dried in the air after the removal of TCA with 90% ethanol. The introduction of radioactivity into the reaction product was quantified using a Typhoon FLA 9500 imager (GE Healthcare, Chicago, IL, USA). The half-maximal inhibitory concentration (IC50) values were determined using a six-point concentration response curve in three independent experiments.

[1] = test system: HeLa cell line (cervical cancer); assay: Cell culture cytotoxicity assay (EZ4U/MTT), compounds alone and combined with hydrogen peroxide; conditions: for Effect (H2O2 + PARP inhibitor combo) / Combination index (CI): Hela; for Combination index (CI): CompuSyn; for Combination index (CI) with H2O2, as stated in text: different concentrations of H2O2 and inhibitor, Hela cells
Description: The cytotoxicity of the compounds and their combinations with a DNA damaging agent were examined against human cells from the HeLa cell line (cervical cancer) using an EZ4U/MTT colorimetric test (Biomedica, Vienna, Austria). […] The cells were grown in 96-well plates in DMEM medium (Gibco, Thermo Fisher Scientific, Waltham, MA, USA), with 1x GlutaMAX (Gibco, Thermo Fisher Scientific, Waltham, MA, USA), 50 IU/mL penicillin, 50 μg/mL streptomycin (MP Biome-dicals, Santa Ana, CA, USA), and in the presence of 10% fetal bovine serum (Biolot, Saint Petersburg, Russia) in a 5% CO2 atmosphere. After the formation of a 30–50% monolayer, the tested compounds were added to the medium to final concentrations specified in Figure 2 and Figure S4, and the cell culture was monitored for 3 days. […] The combination index (CI) values were calculated using CompuSyn software version 1.0.

PARP2 = target: T2, PARP2 (Mus musculus, UniProt O88554); assay: PARP2 autopoly(ADP-ribosyl)ation (autoPARylation) enzyme assay with [32P]NAD+; type: biochemical, murine
T2 construct: made in house; host or cells: insect cells
T2 sequence (O88554 whole entry): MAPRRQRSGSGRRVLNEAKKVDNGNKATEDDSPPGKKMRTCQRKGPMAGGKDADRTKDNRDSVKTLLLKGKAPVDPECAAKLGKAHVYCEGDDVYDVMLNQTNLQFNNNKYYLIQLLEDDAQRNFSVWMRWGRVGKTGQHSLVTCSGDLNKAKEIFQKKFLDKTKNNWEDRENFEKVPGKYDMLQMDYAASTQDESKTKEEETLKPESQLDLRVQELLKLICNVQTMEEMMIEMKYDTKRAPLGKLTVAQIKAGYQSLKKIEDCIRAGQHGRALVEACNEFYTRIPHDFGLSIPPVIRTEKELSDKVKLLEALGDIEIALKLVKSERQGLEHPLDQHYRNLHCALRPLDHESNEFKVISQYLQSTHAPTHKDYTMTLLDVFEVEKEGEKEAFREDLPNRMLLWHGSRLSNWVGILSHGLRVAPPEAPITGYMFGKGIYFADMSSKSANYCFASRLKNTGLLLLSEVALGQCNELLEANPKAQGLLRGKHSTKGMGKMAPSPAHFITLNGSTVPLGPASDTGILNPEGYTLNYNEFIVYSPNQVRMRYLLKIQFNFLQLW
Description: as §1

[2] = target: T3, PARP2 (supplemented with HPF1 or not) (Mus musculus, UniProt O88554); assay: PARP2 inhibition in the absence and presence of HPF1 (automodification, SDS-PAGE); type: biochemical, murine; conditions: 500 nM PARP2, 1 µM HPF1
T3 construct: made in house; host or cells: insect cells (PARP2)
T3 sequence (O88554 whole entry): as above
Description: PARP1/PARP2 autopoly(ADP-ribosyl)ation was performed in a standard 20 μL reaction mixture containing 50 mM of Tris-HCl, a pH of 8.0, 100 mM of NaCl, 10 mM of MgCl2, 1 mM of DTT, 10 µM of [^32P]NAD^+, 1 µM of gap-DNA (a 32-mer duplex with a medially located 1-nucleotide gap), 500 nM of PARP1/PARP2 (supplemented with 1 µM of HPF1 or not), and an inhibitor of interest at concentrations specified in Figure 4 and Figure S7. The reaction was initiated by adding a mixture of [^32P]NAD^+ and DNA to a protein-inhibitor mixture pre-assembled on ice. After incubating the mixtures at 37 °C for the indicated time periods, the reactions were terminated by the addition of an SDS-PAGE sample buffer and heating for 2 min at 90 °C. The reaction products were analyzed using 10% SDS-PAGE with the subsequent phosphor imaging of a Coomassie brilliant blue stained gel. Protein bands labeled with [^32P]ADP-ribose were quantified using Quantity One 4.6.7 Basic software. The residual activity (%) was determined as the level of PARP automodification in the presence of an inhibitor normalized to the respective level in the control sample containing no inhibitor.

[3] = H2O2 150 μM + inhibitor 1000 μM
[4] = H2O2 250 μM + inhibitor 1000 μM

Row | SMILES | Effect (H2O2 + PARP inhibitor combo) ([1]; H2O2 30 μM + inhibitor 100 μM) | Combination index (CI) ([1]; H2O2 30 μM + inhibitor 100 μM) | Effect (H2O2 + PARP inhibitor combo) ([1]; H2O2 30 μM + inhibitor 1000 μM) | Combination index (CI) ([1]; H2O2 30 μM + inhibitor 1000 μM) | Effect (H2O2 + PARP inhibitor combo) ([1]; H2O2 50 μM + inhibitor 100 μM) | Combination index (CI) ([1]; H2O2 50 μM + inhibitor 100 μM) | Effect (H2O2 + PARP inhibitor combo) ([1]; H2O2 50 μM + inhibitor 1000 μM) | Combination index (CI) ([1]; H2O2 50 μM + inhibitor 1000 μM) | Effect (H2O2 + PARP inhibitor combo) ([1]; H2O2 90 μM + inhibitor 100 μM) | Combination index (CI) ([1]; H2O2 90 μM + inhibitor 100 μM) | Effect (H2O2 + PARP inhibitor combo) ([1]; H2O2 90 μM + inhibitor 1000 μM) | Combination index (CI) ([1]; H2O2 90 μM + inhibitor 1000 μM) | Effect (H2O2 + PARP inhibitor combo) ([1]; H2O2 150 μM + inhibitor 100 μM) | Combination index (CI) ([1]; H2O2 150 μM + inhibitor 100 μM) | Effect (H2O2 + PARP inhibitor combo) [1, 3] | Combination index (CI) [1, 3] | Effect (H2O2 + PARP inhibitor combo) ([1]; H2O2 250 μM + inhibitor 100 μM) | Combination index (CI) ([1]; H2O2 250 μM + inhibitor 100 μM) | Effect (H2O2 + PARP inhibitor combo) [1, 4] | Combination index (CI) [1, 4] | further results
1 | Cc1cn([C@H]2CNC[C@@H](CN)O2)c(=O)[nH]c1=O [Compound 8] | 0.15 | 2.596 | 0.46 | 0.6254 | 0.21 | 1.707 | 0.59 | 0.2634 | 0.48 | 0.375 | 0.68 | 0.1724 | 0.61 | 0.2716 | 0.79 | 0.09406 | 0.94 | 0.01519 | 0.92 | 0.02575 | IC50 (PARP1): 10 ± 3 µM; Combination index (CI) with H2O2, as stated in text [1]: less than one; IC50 (PARP2): 133 ± 8 µM; Impact of HPF1 on the inhibition potency against PARP2 [2]: no impact of HPF1
2 | NC[C@@H]1CNC[C@H](n2cc(I)c(=O)[nH]c2=O)O1 [Compound 14] | 0.46 | 0.6331 | 0.3 | 0.3003 | 0.47 | 0.5789 | 0.32 | 0.2452 | 0.6 | 0.1778 | 0.5 | 0.04618 | 0.68 | 0.08158 | 0.61 | 0.01767 | 0.82 | 0.01487 | 0.84 | 0.00135 | IC50 (PARP1; 0.3 mM [32P]NAD+, means ±SDs of three independent experiments, read-out: IC50, PARP1 activity in the autoPARylation reaction): 12 ± 2 µM; Combination index (CI) with H2O2, as stated in text [1]: less than one; IC50 (PARP2; 0.6 mM [32P]NAD+, means ±SDs of three independent experiments, read-out: IC50, PARP2 activity in the autoPARylation reaction): 63 ± 9 µM; Impact of HPF1 on the inhibition potency against PARP2 [2]: no impact of HPF1
